≈ marks a conversion by molar mass, not a printed value. Where two headings read alike, the source gives them in different places.
How the values were obtained:
[1] = system: salmonella paratyphi (SA PA) 11737; experiment: agar serial dilution MIC, SA PA 11737; assay type: cell-based; conditions: Salmonella enterica
From the text: (§1) The compounds of this invention are antibacterials effective against gram-positive and gram-negative test organisms as well as penicillin resistant staphylococcus at an inhibitory concentration at or below 250 micrograms per milliliter using the well-known and scientifically accepted agar serial dilution technique. […] Thus, the compounds of this invention are useful in the fields of comparative pharmacology and microbiology and may be used in the treatment of bovine mastitis, as growth promotors in animals and for the treatment of infections amenable to treatment with penicillins and cephalosporins.
(§2) The following examples are presented for purposes of illustration and should not be construed as limitations upon the true scope of this invention.
Sa pa -- salmonella paratyphi

[2] = system: staphylococcus aureus (ST AU) Smith; experiment: agar serial dilution MIC, ST AU Smith; assay type: cell-based
From the text: as §1, §2
(§3) St au -- staphylococcus aureus

[3] = system: staphylococcus aureus (ST AU) 53-180; experiment: agar serial dilution MIC, ST AU 53-180; assay type: cell-based
From the text: as §1, §2, §3

[4] = system: neisseria catarrhalis (NE CA) 8193; experiment: agar serial dilution MIC, NE CA 8193; assay type: cell-based; conditions: NE CA strain 8193
From the text: as §1, §2
Ne ca -- neisseria catarrhalis

[5] = system: escherichia coli (ES CO) 9637; experiment: agar serial dilution MIC, ES CO 9637; assay type: cell-based; conditions: ES CO strain 9637
From the text: as §1, §2
(§4) Es co -- escherichia coli

[6] = system: staphylococcus aureus (ST AU) 6538P; experiment: agar serial dilution MIC, ST AU 6538P; assay type: cell-based
From the text: as §1, §2, §3

[7] = system: staphylococcus aureus (ST AU) CHP; experiment: agar serial dilution MIC, ST AU CHP; assay type: cell-based; conditions: ST AU strain CHP
From the text: as §1, §2, §3

[8] = system: bacillus subtilis (BA SU) 663; experiment: agar serial dilution MIC, BA SU 663; assay type: cell-based; conditions: BA SU strain 663
From the text: as §1, §2
Ba su -- bacillus subtilis

[9] = system: bordetella brochiseptica (BO BR) 4617; experiment: agar serial dilution MIC, BO BR 4617; assay type: cell-based; conditions: BO BR strain 4617
From the text: as §1, §2
Bo br -- bordetella brochiseptica

[10] = system: proteus vulgaris (PR VU) 6896; experiment: agar serial dilution MIC, PR VU 6896; assay type: cell-based; conditions: PR VU strain 6896
From the text: as §1, §2
Pr vu -- proteus vulgaris

[11] = system: klebsiella pneumoniae (KL PN) 10031; experiment: agar serial dilution MIC, KL PN 10031; assay type: cell-based; conditions: KL PN strain 10031
From the text: as §1, §2
Kl pn -- klebsiella pneumoniae

[12] = system: escherichia intermedia (ES IN) 65-1; experiment: agar serial dilution MIC, ES IN 65-1; assay type: cell-based; conditions: Citrobacter intermedius, ES IN strain 65-1
From the text: as §1, §2
Es in -- escherichia intermedia

[13] = system: salmonella typhosa (SA TY) SAD-12; experiment: in vivo curative dose in infected mice, SA TY SAD-12; conditions: subcutaneous at zero time and 6 hours after i.p. infection, 14 days, mg per mouse, average of several tests
Procedure: (§5) The in vivo activity of the antibacterial agents of this invention was established by subcutaneously administering a dose of the compound being tested at zero time and 6 hours after infection to a randomized group of mice which had been infected with a specific infective agent, such as Escherichia coli, etc., via intraperitoneal injection of 0.5 milliliters of the infective agent in 5 per cent gastric mucin. The mice were then observed for 14 days and any deaths were recorded daily. The curative dose (CD50) was then reported in terms of the milligrams per mouse needed for […] of the infective agent.
Sa ty -- salmonella typhosa

[14] = system: escherichia coli (ES CO) 920; experiment: in vivo curative dose in infected mice, ES CO 920; conditions: subcutaneous at zero time and 6 hours after i.p. infection, 14 days
Procedure: as §5, §4

[15] = system: proteus mirablis (PR MI) PR-3; experiment: in vivo curative dose in infected mice, PR MI PR-3; conditions: subcutaneous at zero time and 6 hours after i.p. infection, 14 days, mg per mouse, average of several tests
Procedure: as §5
Pr mi -- proteus mirablis

[16] = system: staphylococcus aureus (ST AU) Smith; experiment: in vivo curative dose in infected mice, ST AU Smith; conditions: subcutaneous at zero time and 6 hours after i.p. infection, 14 days, mg per mouse, average of several tests
Procedure: as §5, §3

[17] = system: shigella sonnei (SH SO) SH-1; experiment: in vivo curative dose in infected mice, SH SO SH-1; conditions: subcutaneous at zero time and 6 hours after i.p. infection, 14 days, mg per mouse, average of several tests
Procedure: as §5

EN AE 13048 = experiment: agar serial dilution MIC, EN AE 13048; assay type: cell-based; conditions: EN AE strain 13048
From the text: as §1, §2

[18] = agar serial dilution, ST AU strain 53-180, read-out: MIC
[19] = agar serial dilution, ST AU strain Smith, read-out: MIC
[20] = agar serial dilution, ST AU strain 6538P, read-out: MIC

Row | SMILES | MIC [1] [mg/L] | MIC [3, 18] [mg/L] | MIC [4] [mg/L] | MIC [5] [mg/L] | MIC [7] [mg/L] | MIC [8] [mg/L] | MIC [9] [mg/L] | MIC [10] [mg/L] | MIC [11] [mg/L] | MIC [2, 19] [mg/L] | MIC [6, 20] [mg/L] | MIC [12] [mg/L] | further results
1 | CC(=O)OCC1=C(C(=O)O)N2C(=O)C(NC(=O)CCNC(=S)SCC(=O)O)C2SC1 (stereo not drawn) [Example 2, 7-[3-(Dithiocarboxyamino)propionamido]cephalosporanic acid N-carboxymethyl ester] | 0.976 (≈ 2.04 µM) | 3.9 (≈ 8.17 µM) | 125 (≈ 262 µM) | 15.6 (≈ 32.7 µM) | 3.9 (≈ 8.17 µM) | 0.488 (≈ 1.02 µM) | 7.81 (≈ 16.4 µM) | 1.95 (≈ 4.08 µM) | 31.3 (≈ 65.5 µM) | – | – | – | MIC [2]: 0.976 mg/L (≈ 2.04 µM); MIC [6]: 0.976 mg/L (≈ 2.04 µM)
2 | CC(=O)OCC1=C(C(=O)O)N2C(=O)C(NC(=O)CNC(=S)SCC(=O)O)C2SC1 (stereo not drawn) [Example 1, 7-[2-(Dithiocarboxyamino)acetamido]cephalosporanic acid N-carboxymethyl ester] | 7.81 (≈ 16.8 µM) | 3.9 (≈ 8.41 µM) | 250 (≈ 539 µM) | 62.5 (≈ 135 µM) | 3.9 (≈ 8.41 µM) | 0.244 (≈ 0.526 µM) | 15.6 (≈ 33.7 µM) | 15.6 (≈ 33.7 µM) | 31.3 (≈ 67.5 µM) | 0.976 (≈ 2.11 µM) | 0.976 (≈ 2.11 µM) | 250 (≈ 539 µM) | in vivo curative dose (CD50) [13]: 1.41 mg; in vivo curative dose (CD50) ([14]; mg per mouse, average of several tests, ES CO 920): 4.48 mg; in vivo curative dose (CD50) [15]: 1.96 mg; in vivo curative dose (CD50) [16]: 4.37 mg; in vivo curative dose (CD50) [17]: 2.66 mg
3 | CC(=O)OCC1=C(C(=O)O)N2C(=O)C(NC(=O)C(NC(=S)SCC(=O)O)c3ccccc3)C2SC1 (stereo not drawn) [Example 3, 7-[2-(Dithiocarboxyamino)phenylacetamido]cephalosporanic acid N-carboxymethyl ester] | 15.6 (≈ 28.9 µM) | – | 250 (≈ 463 µM) | 31.3 (≈ 58 µM) | 31.3 (≈ 58 µM) | 3.9 (≈ 7.23 µM) | 125 (≈ 232 µM) | 7.81 (≈ 14.5 µM) | 31.3 (≈ 58 µM) | 7.81 (≈ 14.5 µM) | 7.81 (≈ 14.5 µM) | 250 (≈ 463 µM) | MIC [3]: 15.6 mg/L (≈ 28.9 µM); MIC (EN AE 13048): 250 mg/L (≈ 463 µM); CD50 ([14]; ES CO-920): 6.0 milligrams/mouse
